According to patent US20100009970A1, “COMPOSITIONS AND METHODS FOR TREATMENT OF VIRAL DISEASES” (Combinatorx (Singapore) Pte. Ltd., priority 2008, published 2010):
Read-outs that look alike come from different tables or passages of the source.

How the values were obtained:
in vitro = details: human
[1] = test system: Huh7 cells expressing a subgenomic RNA replicon of Con1 (genotype 1b) sequence origin; assay: microbe, parasite or virus in culture; details: Hepatitis C virus
[2] = Huh-7, read-out: IC50 (uM) [SG]
[3] = Huh-7, read-out: Max Effect@CC30 (inhibition)

Row | SMILES | CC50 (in vitro; CC50 (uM) [SG]) [µM] | IC50 [1, 2] [µM] | Emax [1, 3] [%] | IC90 ([1]; Huh-7) [µM] | also measured
1 | COc1ccc(NS(=O)(=O)c2ccc(Oc3ccc(SC)c(C)c3)c(CN(C)C)c2)cc1 [Compound 59, 3-((dimethylamino)methyl)-N-(4-methoxyphenyl)-4-(3-methyl-4-(methylthio)phenoxy)benzenesulfonamide] | 8.32 | 6.39 |  |  | 
2 | CSc1ccc(Oc2ccc(C(N)=O)cc2CN(C)C)cc1C [Compound 10, 3-((dimethylamino)methyl)-4-(3-methyl-4-(methylthio)phenoxy)benzamide] | > 50 | 26.9 | 80.7 |  | 
3 | CSc1ccc(Oc2ccc(S(N)(=O)=O)cc2CN2CCC[C@H]2CN2CCCC2)cc1C [Compound 105, (S)-4-(3-methyl-4-(methylthio)phenoxy)-3-(((2-pyrrolidin-1-ylmethyl)pyrrolidin-1-yl)methyl)benzensulfonamide] | 22.2 | 6.38 |  | 6.86 | 
4 | CNCc1cc(S(N)(=O)=O)ccc1Oc1ccc([N+](=O)[O-])c(C)c1 [Compound 76, 4-(3-methyl-4-nitrophenoxy)-3-((methylamino)methyl)benzenesulfonamide] | > 50 | 31 |  |  | 
5 | CN[C@H]1CC[C@@H](c2ccc(Cl)c(Cl)c2)c2ccc(NS(=O)(=O)c3ccccc3)cc21 [N-((5S,8S)-5-(3,4-dichlorophenyl)-8-(methylamino)-5,6,7,8-tetrahydronaphthalen-2-yl)benzenesulfonamide] | 3.91 | 3.48 |  | 3.83 | CC50 (in vitro; CC50 (uM)): 3.91 µM; IC50 ([1]; Huh-7): 3.48 µM
6 | CSc1ccc(Oc2ccc(S(N)(=O)=O)cc2CN2CCC(N3CCOCC3)CC2)cc1C [Compound 89, 4-(3-methyl-4-(methylthio)phenoxy)-3-((4-morpholinopiperidin-1-yl)methyl)benzenesulfonamide] | > 50 | 6.62 |  | 21.3 | 
7 | CN(C1CC1)[C@H]1CC[C@@H](c2ccc(Cl)c(Cl)c2)c2ccccc21 [N-Cyclopropyl Sertraline, (1S,4S)—N-cyclopropyl-4-(3,4-dichlorophenyl)-N-methyl-1,2,3,4-tetrahydronaphthalen-1-amine] | > 50 | 14.5 | 99 | 34.2 | 
8 | OC1CC[C@@H](c2ccc(Cl)c(Cl)c2)c2ccccc21 (stereo partly drawn) [Alcohol Sertraline-P1, (S)-4-(3,4-dichlorophenyl)-1,2,3,4-tetrahydronaphthalen-1-ol] | > 50 | 24.5 | 89.2 |  | 
9 | CSc1ccc(Oc2ccc(C#N)cc2CN(C)C)cc1C [Compound 7, 3-((dimethylamino)methyl)-4-(3-methyl-4-(methylthio)phenoxy)benzonitrile] | > 50 | 6.4 | 96.7 | 11.5 | 
10 | CNCc1cc(Br)ccc1Oc1ccc(SC)cc1 [Compound 34, (5-bromo-2-(4-(methylthio)phenoxy)phenyl)-N-methylmethanamine] | 35.5 | 24.6 | 72.6 |  | 
11 | CC(C)C1CC[C@@H](c2ccc(Cl)c(Cl)c2)c2ccc(C(N)=O)cc21 (stereo partly drawn) [Isopropyl Sertraline A-Ring Carboxamide, (S)-5-(3,4-dichlorophenyl)-8-isopropyl-5,6,7,8-tetrahydronaphthalene-2-carboxamide] | > 50 | 38.9 |  |  | 
12 | CSc1ccc(Oc2cc(Br)ccc2CN(C)C)cc1C [Compound 60, 1-(4-bromo-2-(3-methyl-4-(methylthio)phenoxy)phenyl)-N,N-dimethylmethanamine] | 28.7 | 12.6 |  |  | 
13 | CSc1ccc(Oc2ccc(S(=O)(=O)NCc3ccccc3)cc2CN(C)C)cc1C [Compound 14, N-benzyl-3-((dimethylamino)methyl)-4-(3-methyl-4-(methylthio)phenoxy)benzenesulfonamide] | 16.9 | 11.4 | 59 |  | 
14 | CN[C@H]1CC[C@@H](c2ccc(Cl)c(Cl)c2)c2ccc(I)cc21 [Sertraline Iodide, (1S,4S)-4-(3,4-dichlorophenyl)-7-iodo-N-methyl-1,2,3,4-tetrahydronaphthalen-1-amine] | 8.92 | 6.57 | 25 |  | CC50 (in vitro; CC50 (uM)): 8.92 µM; Emax ([1]; GETYPE1B, Huh-7, 72 h, read-out: Max Effect @CC30 (inhibition)): 25%; IC50 ([1]; Huh-7, 72 h): 6.57 µM
15 | CN[C@H]1CC[C@@H](c2ccc(Cl)c(Cl)c2)c2ccc(C(=O)Nc3ccccc3)cc21 [Sertraline A-Ring Benzamide, (5S,8S)-5-(3,4-dichlorophenyl)-8-(methylamino)-N-phenyl-5,6,7,8-tetrahydronaphthalene-2-carboxamide] | 3.89 | 2.73 | 48.6 |  | 
16 | CN(C)[C@H]1CC[C@@H](c2ccc(Cl)c(Cl)c2)c2ccc(C(=O)NC3CC3)cc21 [(5S,8S)—N-cyclopropyl-5-(3,4-dichlorophenyl)-8-(dimethylamino)-5,6,7,8-tetrahydronaphthalene-2-carboxamide] | 25.4 | 7.3 |  |  | 
17 | CC(C)C1CCC(c2ccc(Cl)c(Cl)c2)c2ccccc21 (stereo not shown) [Isopropyl Sertraline, 1-(3,4-dichlorophenyl)-4-isopropyl-1,2,3,4-tetrahydronaphthalene] | > 50 | 9.25 ± 0.95 | 97.96 ± 0.06 | 32.1 | 

Row | SMILES | CC50 (in vitro; CC50 (uM) [SG]) [µM] | IC50 [1, 2] [µM] | Emax [1, 3] [%] | IC90 ([1]; Huh-7) [µM] | also measured
18 | CNS(=O)(=O)c1ccc(Oc2ccc(SC)c(C)c2)c(CN(C)C)c1 [Compound 6, 3-((dimethylamino)methyl)-N-methyl-4-(3-methyl-4-(methylthio)phenoxy)benzenesulfonamide] | 45.3 | 5.8 | 93.2 | 14.8 | 
19 | CSc1ccc(Oc2ccc(CNS(C)(=O)=O)cc2CN(C)C)cc1C [Compound 17, N-(3-((dimethylamino)methyl)-4-(3-methyl-4-(methylthio)phenoxy)benzyl)methanesulfonamide] | > 50 | 22.7 |  |  | 
20 | CSc1ccc(Oc2ccc(N(C)C)cc2CN(C)C)cc1C [Compound 15, 3-((dimethylamino)methyl)-N,N-dimethyl-4-(3-methyl-4-(methylthio)phenoxy)aniline] | 38.7 | 23 |  |  | 
21 | CSc1ccc(Oc2ccc(S(N)(=O)=O)cc2CNC[C@@H](C)O)cc1C [Compound 68, (R)-3-((2-hydroxypropylamino)methyl)-4-(3-methyl-4-(methylthio)phenoxy)benzenesulfonamide] | > 50 | 4.34 |  | 15.3 | 
22 | CSc1ccc(Oc2ccc(S(N)(=O)=O)cc2CN2CC[C@@H](O)C2)cc1C [Compound 67, (R)-3-((3-hydroxypyrrolidin-1-yl)methyl)-4-(3-methyl-4-(methylthio)phenoxy)benzenesulfonamide] | > 50 | 2.26 |  | 7.4 | 
23 | CSc1ccc(Oc2ccc(S(N)(=O)=O)cc2CN2CCOCC2)cc1C [Compound 82, 4-(3-methyl-4-(methylthio)phenoxy)-3-(morpholinomethyl)benzenesulfonamide] | > 50 | 20.8 |  |  | 
24 | CSc1ccc(Oc2ccc(S(=O)(=O)Nc3ccc(Br)cc3)cc2CN(C)C)cc1C [Compound 57, N-(4-bromophenyl)-3-((dimethylamino)methyl)-4-(3-methyl-4-(methylthio)phenoxy)benzenesulfonamide] | 8.17 | 11 |  |  | 
25 | CSc1ccc(Oc2ccc(S(N)(=O)=O)cc2CN2C[C@@H](O)C[C@@H]2CO)cc1C [Compound 110, 3-(((2S,4R)-4-hydroxy-2-(hydroxymethyl)pyrrolidin-1-yl)methyl)-4-((3-methyl-4-methylthio)phenoxy)benzenesulfonamide] | > 50 | 13.1 |  |  | 
26 | CN(C)Cc1ccccc1Oc1ccc(Br)cc1 [Compound 55, (2-(4-bromophenoxy)phenyl)-N,N-dimethylmethanamine] | > 50 | 29.9 | 77.2 |  | 
27 | CN(C)[C@H]1CC[C@@H](c2ccc(Cl)c(Cl)c2)c2ccc(C(=O)NCC3CC3)cc21 [(5S,8S)—N-(cyclopropylmethyl)-5-(3,4-dichlorophenyl)-8-(dimethylamino)-5,6,7,8-tetrahydronaphthalene-2-carboxamide] | 19.4 | 5.61 |  | 12.2 | 
28 | CSc1ccc(Oc2ccc(S(N)(=O)=O)cc2CN2CCN(c3ccccc3F)CC2)cc1C [Compound 87, 3-((4-(2-fluorophenyl)piperazin-1-yl)methyl)-4-(3-methyl-4-(methylthio)phenoxy)benzenesulfonamide] | 30.2 | 23.5 |  |  | 
29 | COC[C@@H]1CCCN1Cc1cc(S(N)(=O)=O)ccc1Oc1ccc(SC)c(C)c1 [Compound 104, (S)-3-((2-(methoxymethyl)pyrrolidin-1-yl)methyl)-4-(3-methyl-4-(methylthio)phenoxy)benzenesulfonamide] | > 50 | 27.8 |  |  | 
30 | CNC1CCC(c2ccc(Cl)c(Cl)c2)c2ccsc21 (stereo not shown) [Sertraline A-ring Thiophene] | 18.8 ± 0.93 | 8.27 ± 0.46 | 80.8 ± 2.55 |  | Emax ([1]; Huh-7, read-out: Max effect @CC30 (%)): 80.8 ± 2.55%; IC50 ([1]; Huh-7, read-out: SA IC50 (uM)): 8.27 ± 0.46 µM
31 | CSc1cc(S(N)(=O)=O)c(Oc2cc(Br)ccc2CN(C)C)cc1C [Compound 72, 2-(5-bromo-2-((dimethylamino)methyl)phenoxy)-4-methyl-5-(methylthio)benzenesulfonamide] | 45 | 16.3 |  |  | 
32 | CN[C@H]1CC[C@@H](c2ccc(Cl)c(Cl)c2)c2ccc(N(C)C(C)=O)cc21 [N-((5S,8S)-5-(3,4-dichlorophenyl)-8-(methylamino)-5,6,7,8-tetrahydronaphthalen-2-yl)-N-methylacetamide] | 14.6 | 3.79 |  | 10.7 | 
33 | CNCc1cc(S(N)(=O)=O)ccc1Oc1ccc(C)c(C)c1 [Compound 84, 4-(3,4-dimethylphenoxy)-3-((methylamino)methyl)benzenesulfonamide] | 46.7 | 28.1 |  | 39.6 | 
